Measurements: publication PMC4256409, “Role of Phenylalanine and Valine^10 Residues in the Antimicrobial Activity and Cytotoxicity of Piscidin-1” (PLoS ONE, 2014)
Where no end group is shown, it is not given here.

Key:
P. aeruginosa KCTC2004 = type: cell-based, Pseudomonas aeruginosa; conditions: P. aeruginosa KCTC2004; broth microdilution, 37°C, 16 h; three independent experiments in triplicate, SD 14.0%
Protocol: (§1) The antimicrobial activities of the peptides against selected organisms, including three Gram-positive, three Gram-negative, and five antibiotic-resistant bacteria, were determined using a broth microdilution assay. Briefly, single colonies of bacteria and fungi were inoculated into Luria-Bertani (LB) medium and cultured overnight at 37°C. An aliquot of the culture was transferred to 10 mL of fresh LB and incubated for an additional 3–5 h at 37°C until it reached the mid-logarithmic phase. Two-fold serial dilutions of the peptides in 1% peptone were prepared. The serial dilutions (100 µL) were added to 100 µL of cells (2×10^6 colony-forming units (CFU)/mL) in 96-well microtiter plates and incubated at 37°C for 16 h. […] MIC values were calculated as the average of triplicate measurements from three independent assays.

MRSA CCARM 3126 = type: cell-based, Methicillin-resistant S. aureus; conditions: MRSA CCARM 3126; broth microdilution, 37°C, 16 h; three independent experiments in triplicate, SD 14.0%
Description: (§2) Escherichia coli KCTC 1682, E. coli KCTC 2593, E. coli KCTC 2571, Salmonella typhimurium KCTC 1926, Pseudomonas aeruginosa KCTC 1637, P. aeruginosa KCTC 2004, P. aeruginosa KCTC 2513, Bacillus subtilis KCTC 3068, B. subtilis KCTC 1021, B. subtilis KCTC 1022, Staphylococcus epidermidis KCTC 1917, Staphylococcus aureus KCTC 1621, S. aureus KCTC 1916, and S. aureus KCTC 3881 were purchased from the Korean Collection for Type Cultures, Korea Research Institute of Bioscience & Biotechnology (Taejon, Korea). Methicillin-resistant S. aureus (MRSA) (CCARM 3089, CCARM 3090, CCARM 3108, CCARM 3114, and CCARM 3126), multidrug-resistant E. coli (MDREC) (CCARM 1229 and CCARM 1238), multidrug-resistant S. typhimurium (MDRST) (CCARM 8003, CCARM 8007, and CCARM 8009), multidrug-resistant Acinetobacter baumanii (MDRAB) (CCARM 12005, CCARM 12035, CCARM 12036, CCARM 12037), and multidrug-resistant P. aeruginosa (MDRPA) (CCARM 2002, CCARM 2003, CCARM 2095, and CCARM 2163) were obtained from the Culture Collection of Antibiotic-Resistant Microbes (CCARM) at Seoul Women’s University in Korea. The antimicrobial activities of the peptides against selected organisms, including three Gram-positive, three Gram-negative, and five antibiotic-resistant bacteria, were determined using a broth microdilution assay. Briefly, single colonies of bacteria and fungi were inoculated into Luria-Bertani (LB) medium and cultured overnight at 37°C. An aliquot of the culture was transferred to 10 mL of fresh LB and incubated for an additional 3–5 h at 37°C until it reached the mid-logarithmic phase. Two-fold serial dilutions of the peptides in 1% peptone were prepared. The serial dilutions (100 µL) were added to 100 µL of cells (2×10^6 colony-forming units (CFU)/mL) in 96-well microtiter plates and incubated at 37°C for 16 h. […] MIC values were calculated as the average of triplicate measurements from three independent assays.

S. aureus KCTC1621 = type: cell-based, Staphylococcus aureus; conditions: S. aureus KCTC1621; broth microdilution, 37°C, 16 h; three independent experiments in triplicate, SD 14.0%
Protocol: as §1

MDRPA CCARM 2003 = type: cell-based, multidrug-resistant P. aeruginosa; conditions: broth microdilution, 37°C, 16 h, three independent experiments in triplicate, SD 14.0%
Protocol: as §1

S. epidermidis KCTC1917 = type: cell-based, Staphylococcus epidermidis; conditions: S. epidermidis KCTC1917; broth microdilution, 37°C, 16 h; three independent experiments in triplicate, SD 14.0%
Protocol: as §1

S. aureus KCTC1916 = type: cell-based, Staphylococcus aureus; conditions: S. aureus KCTC1916; broth microdilution, 37°C, 16 h; three independent experiments in triplicate, SD 14.0%
Protocol: as §1

B. subtilis KCTC3068 = type: cell-based, Bacillus subtilis; conditions: B. subtilis KCTC3068; broth microdilution, 37°C, 16 h; three independent experiments in triplicate, SD 14.0%
Protocol: as §1

MDRPA CCARM 2095 = type: cell-based, multidrug-resistant P. aeruginosa; conditions: broth microdilution, 37°C, 16 h, three independent experiments in triplicate, SD 14.0%
Protocol: as §1

B. subtilis KCTC1021 = type: cell-based, Bacillus subtilis; conditions: B. subtilis KCTC1021; broth microdilution, 37°C, 16 h; three independent experiments in triplicate, SD 14.0%
Protocol: as §1

MDRAB CCARM 12005 = type: cell-based, multidrug-resistant Acinetobacter baumanii; conditions: broth microdilution, 37°C, 16 h, three independent experiments in triplicate, SD 14.0%
Protocol: as §1

MRSA CCARM 3114 = type: cell-based, Methicillin-resistant S. aureus; conditions: MRSA CCARM 3114; broth microdilution, 37°C, 16 h; three independent experiments in triplicate, SD 14.0%
Description: as §2

MDRST CCARM 8007 = type: cell-based, multidrug-resistant S. typhimurium; conditions: broth microdilution, 37°C, 16 h, three independent experiments in triplicate, SD 14.0%
Description: as §2

For “FFHHIFRGIVHVGKTIHRLVTG [Pis-1, reference compound]”, the MIC (P. aeruginosa KCTC2004) was 2.0 µM, the MIC (MRSA CCARM 3126) was 4.0 µM and the MIC (S. aureus KCTC1621) was 1.0 µM. For the same sequence, the MIC (MDRPA CCARM 2003) was 2.0 µM, the MIC (S. epidermidis KCTC1917) was 2.0 µM and the MIC (S. aureus KCTC1916) was 1.0 µM. It also gave an MIC (B. subtilis KCTC3068) of 1.0 µM, an MIC (MDRPA CCARM 2095) of 2.0 µM and an MIC (B. subtilis KCTC1021) of 2.0 µM. For the same sequence, the MIC (MDRAB CCARM 12005) was 2.0 µM, the MIC (MRSA CCARM 3114) was 4.0 µM and the MIC (MDRST CCARM 8007) was 4.0 µM.
